Test results taken from patent publication EP3345917A1, “ANTIPROTOZOAL COMPOUNDS” (Bacoba AG, priority 2017, dated 2018).
Where “and” joins values, the source holds several entries; their conditions need not be identical. Equal entries are not always repeated. Entries after “also recorded” stand apart in the source; their conditions may differ. Non-standard residues stand in square brackets, D forms with d. Residues, ends and D or L forms follow the SMILES beside them. *: point of attachment. X10 = O=C(c1ccccc1)[C@H]1CCCC[C@H]1C(=O)*; NH((S)CH(Me)CH2NMe2) = C[C@@H](CN(C)C)N*; NH(1-CH2NMe2-cBu) = CN(C)CC1(N*)CCC1; Gly(octyl) = CCCCCCCC[C@H](N)C(=O)O; Oxazole4CO(2-Me) = Cc1nc(C(=O)*)co1; Benzoyl(4-F) = O=C(c1ccc(F)cc1)*; hCha = N[C@@H](CCC1CCCCC1)C(=O)O; X4 = O=C(C1CCc2ccccc2C1)*; Aib = CC(C)(N)C(=O)O; βAla = NCCC(=O)O

What was measured:
Plasmodium falciparum = experiment: 3H-hypoxanthine incorporation assay against Plasmodium falciparum; type: cell-based; conditions: In vitro inhibition, read-out: P.falc NF5
Experimental: (§1) Tests were done in triplicate.
IC50 values were calculated by linear interpolation.

[1] = test system: Trypanosoma cruzi trypomastigote forms (Tulahuen strain); experiment: Intracellular Trypanosoma cruzi assay in L6-cells, beta-galactosidase/CPRG readout; type: cell-based; conditions: In vitro inhibition, read-out: T.cruzi.
Summary of the method: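 Readout was β-galactosidase cleavage of CPRG, read photometrically at 540 nm after 2–6 h colour development, giving IC50 values. Parasites: LacZ-expressing Tulahuen C2C4 strain grown in rat L6 myoblasts; run in triplicate.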

[2] = test system: Trypanosoma brucei rhodesiense (STIB 900 strain); experiment: Alamar Blue assay against Trypanosoma brucei rhodesiense grown in axenic medium; type: cell-based; conditions: In vitro inhibition, read-out: T.b.rhod.
Summary of the method: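 Alamar Blue-based IC50 determination, in triplicate, on axenically grown STIB 900 trypanosomes. Melarsoprol included as reference.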

[3] = Cytotoxicity assay on L6-cells (Alamar Blue); conditions: rat, Cytotox L6, Cytotoxicity against rat myoblast cells (L6)
[4] = test system: intracellular Leishmania donovani (L.don. InMac); experiment: Intracellular Leishmania donovani assay (L.don. InMac); type: cell-based; conditions: In vitro inhibition
Excerpt: as §1

[5] = test system: Axenically grown Leishmania donovani amastigotes (strain MHOM/ET/67/L82); experiment: Axenic Leishmania donovani amastigote resazurin assay; type: cell-based; conditions: In vitro inhibition, read-out: L.don. ax
Summary of the method: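 IC50 values derive from resazurin fluorescence (ex 536 nm, em 588 nm), expressed relative to the negative control, after 2-4 hours of plate development. Axenic amastigotes of strain MHOM/ET/67/L82 were used; each test run in triplicate.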

[6] = test system: Trypanosoma brucei brucei; experiment: Acute mouse sleeping sickness model (in vivo antitrypanosomal activity); conditions: for Mean day of relapse / Mean day of survival / animals surviving until day 31: group of four mice; for Day of relapse / Parasitaemia day 7 / Parasitaemia day 10 / Parasitaemia day 14 / Parasitaemia day 17 / Parasitaemia day 21 / Parasitaemia day 24 / Parasitaemia day 28 / Parasitaemia day 31 / Survival days: individual mice; for parasitaemia on day 7: day 7 post infection; for reduction of parasitaemia compared to untreated controls: four mice; for Parasitaemia day 7: key: 0 = no parasite in 20 fields of view; ((+)) = 1 Trypanosome in 20 fields of view; (+) = 1 Trypanosome per field of view; + = 2 - 5 Trypanosomes per field of view; ++ = 6 - 20 Trypanosomes per field of view, the mouse is killed; +++ = > 20 Trypanosomes per field of view, the mouse is killed
Experimental: This model mimics the first stage of the human African trypanosomiasis. Adult female NMRI mice were purchased from Janvier (St. Berthevin, France). They weighed between 20 and 25 g at the beginning of the study and were kept under standard conditions at 22 °C and 60-70% humidity in macro Ion type III cages with food pellets and water ad libitum. The samples were first dissolved in 100% DMSO, followed by addition of distilled H2O to a final DMSO concentration of 10%. For determination of the in vivo antitrypanosomal activity, mice were infected intraperitoneally with 1 x 10^4 STIB900 bloodstream forms. […] A control group of four mice was infected, but remained untreated. The determination of the parasitaemia was done on days 7, 10, 14, 17, 21, 24, 28, and 31 post infection. To do this 6 µL of tail blood were diluted in 24 µL sodium citrate (3.2%), whereby the first µL was discarded to obtain circulating blood. Five µL of this mixture were transferred to a glass slide and covered with an 18 x 18 mm cover slide. The sample was examined under a light microscope (200-fold magnification) and parasites were counted in 3 of the 16 squares of the grid.

[7] = 3 mg/kg per injection, 2 per day, 4 treatment days, i.p.
[8] = 3 mg/kg twice a day for 4 days, intraperitoneally
[9] = 30 mg/kg per injection, 1 per day, 4 treatment days, p.o.
[10] = 3 mg/kg per injection, 2 per day, 2 treatment days, i.p.
[11] = 3 mg/kg twice a day for 2 days, intraperitoneal

CCCCCCCC[C@H](NC(=O)C1CCc2ccccc2C1)C(=O)N[C@@H](CC(C)C)C(=O)NC(C)(C)C(=O)N[C@@H](CC(C)C)C(=O)N[C@@H](CC(C)C)C(=O)NC(C)(C)C(=O)NC(C)(C)C(=O)NCCC(=O)N[C@@H](C)CN(C)C (stereo partly drawn) [Compound 5944, (2S)-N-[(1S)-1-[(1-{[(1S)-1-{[(1S)-1-{[1-({1-[(2-{[(2S)-1-(dimethylamino)propan-2-yl]carbamoyl}ethyl)carbamoyl]-1-methylethyl}carbamoyl)-1-methylethyl]carbamoyl}-3-methylbutyl]carbamoyl}-3-methylbutyl]carbamoyl}-1-methylethyl)carbamoyl]-3-methylbutyl]-2-[(1,2,3,4-tetrahydronaphthalen-2-yl)formamido]decanamide] (X4-[Gly(octyl)]L[Aib]LL[Aib][Aib][βAla]-{NH((S)CH(Me)CH2NMe2)})
IC50 (Plasmodium falciparum): 42500 nM | IC50 [1]: 5 nM | IC50 [2]: 0.1 nM | IC50 at 70 h [3]: 137 nM | IC50 [4]: < 36.5 nM | IC50 [5]: 0.6 nM

CCCCCCCC[C@H](NC(=O)[C@@H]1CCCC[C@@H]1C(=O)c1ccccc1)C(=O)N[C@@H](CC(C)C)C(=O)NC(C)(C)C(=O)N[C@@H](CC(C)C)C(=O)N[C@@H](CC(C)C)C(=O)NC(C)(C)C(=O)NC(C)(C)C(=O)NCCC(=O)N[C@@H](C)CN(C)C [Compound 5945, (2S)-2-{[(1R,2S)-2-benzoylcyclohexyl]formamido}-N-[(1S)-1-[(1-{[(1S)-1-{[(1S)-1-{[1-({1-[(2-{[(2S)-1-(dimethylamino)propan-2-yl]carbamoyl}ethyl)carbamoyl]-1-methylethyl}carbamoyl)-1-methylethyl]carbamoyl}-3-methylbutyl]carbamoyl}-3-methylbutyl]carbamoyl}-1-methylethyl)carbamoyl]-3-methylbutyl]decanamide] (X10-[Gly(octyl)]L[Aib]LL[Aib][Aib][βAla]-{NH((S)CH(Me)CH2NMe2)})
IC50 (Plasmodium falciparum): 42600 nM | IC50 [1]: 34.3 nM | IC50 [2]: 0.4 nM | IC50 at 70 h [3]: 144 nM | IC50 [4]: < 34.7 nM | IC50 [5]: 42700 nM

Cc1nc(C(=O)N2CCC[C@H]2C(=O)N[C@@H](CCC2CCCCC2)C(=O)N[C@@H](CC(C)C)C(=O)NC(C)(C)C(=O)N[C@@H](CC(C)C)C(=O)N[C@@H](CC(C)C)C(=O)NC(C)(C)C(=O)NC(C)(C)C(=O)NCCC(=O)NC2(CN(C)C)CCC2)co1 [Compound 6025, (2S)-2-[(2S)-4-cyclohexyl-2-{[(2S)-1-(2-methyl-1,3-oxazole-4-carbonyl)pyrrolidin-2-yl]formamido}butanamido]-N-(1-{[(1S)-1-{[(1S)-1-({1-[(1-{[2-({1-[(dimethylamino)methyl]cyclobutyl}carbamoyl)ethyl]carbamoyl}-1-methylethyl)carbamoyl]-1-methylethyl}carbamoyl)-3-methylbutyl]carbamoyl}-3-methylbutyl]carbamoyl}-1-methylethyl)-4-methylpentanamide] ({Oxazole4CO(2-Me)}-P[hCha]L[Aib]LL[Aib][Aib][βAla]-{NH(1-CH2NMe2-cBu)})
Mean day of relapse [6, 7]: 15 days | Mean day of survival [6, 7]: 28 days | Day of relapse [6, 7]: 10 day and 17 day (2×) | Parasitaemia day 7 [6, 7]: 0 | Parasitaemia day 10 [6, 7]: 0 (3×) and ((+)) (((+)) = 1 Trypanosome in 20 fields of view) | Parasitaemia day 14 [6, 7]: 0 | Parasitaemia day 17 [6, 7]: 0 and ((+)) (((+)) = 1 Trypanosome in 20 fields of view) and ++ (++ = 6 - 20 Trypanosomes per field of view, the mouse is killed) and (+) ((+) = 1 Trypanosome per field of view) | Parasitaemia day 21 [6, 7]: 0 (2×) and (+) ((+) = 1 Trypanosome per field of view) | Parasitaemia day 24 [6, 7]: 0 (2×) and ((+)) (((+)) = 1 Trypanosome in 20 fields of view) | Parasitaemia day 28 [6, 7]: 0 | Parasitaemia day 31 [6, 7]: 0 (2×) and (+) ((+) = 1 Trypanosome per field of view) | Survival days [6, 7]: 31 days (3×) and 17 days | animals surviving treatment [6, 8]: all animals survived treatment | parasitaemia on day 7 [6, 8]: no observable parasitaemia | reduction of parasitaemia compared to untreated controls [6, 8]: significant reduction of parasitaemia | animals surviving until day 31 [6, 8]: three out of four | animals with no observable parasitaemia at day 31 ([6]; 3 mg/kg twice a day for 4 days, intraperitoneally, of the three survivors): 2 | Mean day of relapse [6, 9]: 15 days | Mean day of survival [6, 9]: 21 days | Day of relapse [6, 9]: 17 day (2×) and 14 day and 10 day | Parasitaemia day 7 [6, 9]: 0 | Parasitaemia day 10 [6, 9]: 0 (3×) and ((+)) (((+)) = 1 Trypanosome in 20 fields of view) | Parasitaemia day 14 [6, 9]: 0 (2×) and (+) ((+) = 1 Trypanosome per field of view) (2×) | Parasitaemia day 17 [6, 9]: + (+ = 2 - 5 Trypanosomes per field of view); also recorded: ++ (++ = 6 - 20 Trypanosomes per field of view, the mouse is killed) | Parasitaemia day 21 [6, 9]: ((+)) (((+)) = 1 Trypanosome in 20 fields of view) | Parasitaemia day 24 [6, 9]: (+) ((+) = 1 Trypanosome per field of view) | Parasitaemia day 28 [6, 9]: + (+ = 2 - 5 Trypanosomes per field of view) | Parasitaemia day 31 [6, 9]: +++ (+++ = > 20 Trypanosomes per field of view, the mouse is killed) | Survival days [6, 9]: 20 days and 17 days (2×) and 31 days | animals surviving treatment ([6]; mouse, in vivo, po, 30 mg/kg): all animals survived treatment | relapse by day 17 ([6]; orally at 30 mg/kg once a day): all had relapsed | parasitaemia on day 7 ([6]; orally at 30 mg/kg once a day): no observable parasitaemia | reduction of parasitaemia compared to untreated controls ([6]; orally at 30 mg/kg once a day): significant reduction of parasitaemia | animals surviving until day 31 ([6]; orally at 30 mg/kg once a day): one | IC50 (Plasmodium falciparum): 20900 nM | IC50 [1]: 215 nM | IC50 [2]: 0.5 nM | IC50 at 70 h [3]: 1910 nM | IC50 [4]: 41.1 nM | IC50 [5]: 31300 nM

CC(C)C[C@H](NC(=O)[C@H](CCC1CCCCC1)NC(=O)[C@@H]1CCCN1C(=O)c1ccc(F)cc1)C(=O)NC(C)(C)C(=O)N[C@@H](CC(C)C)C(=O)N[C@@H](CC(C)C)C(=O)NC(C)(C)C(=O)NC(C)(C)C(=O)NCCC(=O)NC1(CN(C)C)CCC1 [Compound 6027, (2S)-2-[(2S)-4-cyclohexyl-2-{[(2S)-1-(4-fluorobenzoyl)pyrrolidin-2-yl]formamido}butanamido]-N-(1-{[(1S)-1-{[(1S)-1-({1-[(1-{[2-({1-[(dimethylamino)methyl]cyclobutyl}carbamoyl)ethyl]carbamoyl}-1-methylethyl)carbamoyl]-1-methylethyl}carbamoyl)-3-methylbutyl]carbamoyl}-3-methylbutyl]carbamoyl}-1-methylethyl)-4-methylpentanamide] ({Benzoyl(4-F)}-P[hCha]L[Aib]LL[Aib][Aib][βAla]-{NH(1-CH2NMe2-cBu)})
Mean day of relapse [6, 10]: 17 days | Mean day of survival [6, 10]: 18 days | Day of relapse [6, 10]: 17 days | Parasitaemia day 7 [6, 10]: 0 | Parasitaemia day 10 [6, 10]: 0 | Parasitaemia day 14 [6, 10]: 0 | Parasitaemia day 17 [6, 10]: ++ (++ = 6 - 20 Trypanosomes per field of view, the mouse is killed); also recorded: + (+ = 2 - 5 Trypanosomes per field of view) | Parasitaemia day 21 [6, 10]: ((+)) (((+)) = 1 Trypanosome in 20 fields of view) | Parasitaemia day 24 [6, 10]: ((+)) (((+)) = 1 Trypanosome in 20 fields of view) | Parasitaemia day 28 [6, 10]: (+) ((+) = 1 Trypanosome per field of view) | Parasitaemia day 31 [6, 10]: (+) ((+) = 1 Trypanosome per field of view) | Survival days [6, 10]: 17 days (2×) and 31 days and 5 days | parasitaemia by day 17 [6, 11]: all surviving animals showed parasitaemia | parasitaemia of the surviving animal at day 31 [6, 11]: low parasitaemia | animals sacrificed after parasitaemia relapse ([6]; 3 mg/kg twice a day for 2 days, intraperitoneal, after day 17): two | parasitaemia on day 7 [6, 11]: no observable parasitaemia | reduction of parasitaemia compared to untreated controls [6, 11]: significant reduction of parasitaemia | animals surviving until day 31 [6, 11]: one | animals surviving treatment ([6]; 3 mg/kg twice a day for 2 days, intraperitoneal, one death on day 5 for unspecified reasons): all animals survived treatment, except for one | IC50 (Plasmodium falciparum): 42500 nM | IC50 [1]: 155 nM | IC50 [2]: 0.4 nM | IC50 at 70 h [3]: 1390 nM | IC50 [4]: 54.2 nM | IC50 [5]: 34100 nM
